# Data: patent US4048299A, “Anticaries confectionaries and oral health products” (William Wrigley, Jr. Co., priority 1970, dated 1977)
# Like-named read-outs stand apart in the source and are kept apart here.
# Key:
# oral microorganisms [1] = assay: Acid production inhibition in vitro (summary); type: cell-based; conditions: in words, summary of tables
# Procedure: (§1) Other in vitro evaluations utilized a broth tube analysis of representative anticaries aldehydes incorporated in the vehicles of this invention against cultures of acid producing microorganisms normally present in the mouth. Standard laboratory procedures were utilized throughout to evaluate the acid production inhibition and growth inhibition over the incubation time of up to 24 hours.
# oral microorganisms [2] = assay: Growth inhibition in vitro (summary); type: cell-based; conditions: in words, summary of tables
# Procedure: as §1
# L. casei = assay: Growth inhibition of oral microorganisms in vitro, pour plates; type: cell-based, Lactobacillus casei; conditions: Table IX; for Bacterial Population, Experimental: control 8 × 10^8 to 1 × 10^9; for Inhibition (growth): pour plates incubated 48 - 72 hours
# Procedure: (§2) (a)Determined on freshly grown pure cultures. Pour plates were incubated
# Streptococcus spp. FA-1 = assay: as above; type: cell-based; conditions: Table IX; for Bacterial Population, Experimental: control 2 × 10^8 to 5 × 10^8; for Inhibition (growth): pour plates incubated 48 - 72 hours
# Procedure: as §2
# [3] = test system: Lactobacillus casei and Streptococcus sp. FA-1; assay: Acid-production inhibition by broth-tube assay, 0.1 percent of compound; type: cell-based; conditions: for inhibition at 0.1 %: read-out: Activity, Acid-Production Inhibition%
# Procedure: ^(a) Activity was measured by broth-tube assay to determine percent
# (§3) acid-production inhibition obtained by Lactobacillus casei and
# Streptococcus sp. FA-1 in the presence of 0.1 percent of compound.
# ^(a) Activity was measured by broth-tube assay to determine percent o
# as §3
# Streptococcus sp. FA-1 in the presence of 0.1% of compound. Symbols
# [4] = In vivo caries evaluation, Osborne-Mendel strain 1 rat; design: species or system rat (Osborne-Mendel strain 1); Caries Score, Mean Incidence / Caries Score, Mean Extent: scale not given here; conditions: Table II, 90 days; for Caries Score, Mean Incidence / Caries Score, Mean Extent: 1 percent in diet; for Caries Score, Mean Incidence: RCD control 19.0 (octan-), 14.1 (nonan-), 17.6 (decan-), 22.3 (undecylenic); for Caries Score, Mean Extent: RCD control 49.6 (octan-), 34.3 (nonan-), 46.0 (decan-), 54.6 (undecylenic); for Caries Extent Reduction, statistical evaluation / Caries Incidence Reduction, statistical evaluation: Student's test, 95 percent confidence limit
# From the text: (§4) Standard laboratory techniques were used to complie the data presented. In each case the aldehyde was incorporated into each specimen's food in a one percent, by weight, quantity, over a period of several weeks. In all cases, caries reduction was noted.
# (§5) The aldehydes tested in vivo were pyruvaldehyde, d,1-glyceraldehyde, crystalline dimer, glycolaldehyde, octanaldehyde, nonanaldehyde, decanaldehyde, undecylenic aldehyde, and lauric aldehyde. The polyaldehydes tested were dialdehyde starch, dialdehyde starch 50 percent oxidized, dialdehyde starch 90 percent oxidized, and dialdehyde galactomannan gum.
# (§6) ^(a) Agents were incorporated in the diet at a 1 percent level.
# [5] = In vivo caries evaluation, laboratory animals (summary); conditions: one percent level in diet
# From the text: as §4, §5
# [6] = In vivo caries evaluation, albino hamster; conditions: Table II, 59 days
# From the text: as §4, §5, §6
# [7] = In vivo caries evaluation, Osborne-Mendel strain 2 rat; design: species or system rat (Osborne-Mendel strain 2); Caries Score, Mean Incidence / Caries Score, Mean Extent: scale not given here; conditions: Table II, 90 days
# From the text: as §4, §5, §6
# [8] = Table X, 0.1 percent of compound
# [9] = Student's test, 95 percent confidence limit
SMILES,"Bacterial Population, Experimental (L. casei)",Inhibition (growth) (L. casei),"Bacterial Population, Experimental (Streptococcus spp. FA-1)",Inhibition (growth) (Streptococcus spp. FA-1),"inhibition at 0.1 % [3, 8] [%]",further results
CCCC=CC=O [2-Hexene-1-al],8 × 10^8,Insignificant,9 × 10^7,Insignificant,–,Acid Production Inhibition (oral microorganisms [1]): excellent acid production inhibition; Growth Inhibition (oral microorganisms [2]): little or no growth inhibition; inhibition at 0.1 % [3]: 90 to 98%
CCCCCCCCCC(C)C=O (stereo not drawn) [Methylnonylacetaldehyde],< 1 × 10^3,> 99.99%,0,100%,90 to 98,–
O=CCCC=O [Succinic dialdehyde],–,–,–,–,–,"Activity, Acid-Production Inhibition, % ([3]; Table XII, 0.1% of compound): ++++ (99 to 100)"
CC=CCCCCCCCC=O [Undecylenic aldehyde],1 × 10^2,> 99.99%,0,100%,99 to 100,"Caries Score, Mean Incidence [4]: 7.4; Caries Score, Mean Extent [4]: 16.4; Caries Extent Reduction, statistical evaluation [4]: Significant; Caries Incidence Reduction, statistical evaluation [4]: Significant; Anticaries effect in laboratory animals [5]: significant anticaries activity"
CCCCCC=O [n-Hexaldehyde],1 × 10^9,None,4 × 10^8,Insignificant,25 to 74,Acid Production Inhibition (oral microorganisms [1]): excellent acid production inhibition; Growth Inhibition (oral microorganisms [2]): little or no growth inhibition
CC(C)=CCCC(C)=CC=O [Citral],–,–,–,–,99 to 100,–
CCCCCCCC=O [Octanaldehyde],2 × 10^7,97%,9 × 10^3,> 99.99%,99 to 100,"Caries Score, Mean Incidence [4]: 9.8; Caries Score, Mean Extent [4]: 20.4; Caries Extent Reduction, statistical evaluation [4]: Significant; Caries Incidence Reduction, statistical evaluation [4]: Significant; Caries Score, Mean Incidence ([6]; 1 percent in diet, L2000 control 39.3): 18.6; Caries Score, Mean Extent ([6]; 1 percent in diet, L2000 control 117.6): 53.8; Caries Extent Reduction, statistical evaluation [6, 9]: Significant; Caries Incidence Reduction, statistical evaluation [6, 9]: Significant; Caries Score, Mean Incidence ([7]; 1 percent in diet, L2000 control 17.4): 2.9; Caries Score, Mean Extent ([7]; 1 percent in diet, L2000 control 31.3): 4.1; Caries Extent Reduction, statistical evaluation [7, 9]: Significant; Caries Incidence Reduction, statistical evaluation [7, 9]: Significant; Anticaries effect in laboratory animals [5]: significant anticaries activity"
CCCCCCCCCCC=O [Undecylic aldehyde],5 × 10^4,> 99.99%,2 × 10^3,> 99.99%,99 to 100,–
